# Laboratory results published in US6395745B1, “Alkaloid halide salts of swainsonine and methods of use” (priority 1997, dated 2002).
# Assays:
# [1] = system: SP1.A3a mouse mammary adenocarcinoma; experiment: SP1.A3a tumor growth in mice, Alzet mini-osmotic pump; type: in vivo, CBA/J mice; conditions: for difference in mean tumour volume between control and treatment groups: 0.5 mg/kg/day via osmotic pump over 28 days
# Protocol: A metastatic subclone of the SP1 tumor line (A3a), mouse mammary adenocarcinoma was maintained in exponential growth in RPMI 1640 containing 10% FBS. The cells were harvested and resuspended at 1×10^6/ml or 1×10^7/ml in PBS and 0.1 ml containing 1×10^5 injected S.C. into the right flank of 7 week old female CBA/J mice (Jackson Laboratories). Alzet mini-osmotic pumps were implanted subcutaneously, on the opposite side of anesthetized animals. The pumps were primed to deliver saline (control) or 0.5 mg/kg/day of swainsonine hydrochloride over 28 days. Mice were monitored for the appearance of a palpable tumour and subsequent tumor growth was measured using bernier callipers. Tumor weights and the number of lung metastasis were measured on day 42.
# [2] = Solubility in distilled water at room temperature; type: physicochemical
# Protocol: The melting point of the clear swainsonine hydrochloride crystal (prism) was 190-191° C. The solubility of swainsonine hydrochloride in distilled water at room temperature was about 3 g/ml, in contrast to the solubility of swainsonine free base, which is about 0.8 g/ml (see Table 5).
# STAT1 = STAT1 level and activation in mice (Western blot, immunoblotting); type: in vivo, DBA/2 mice
# Protocol: To measure the level and activation of STATs, DBA/2 mice are treated for 6-9 days with 20 μg/mouse/day of swainsonine hydrochloride followed by a single intraperitoneal (i.p) injection of either sterile saline or 100 μg of poly IC (i.e., dsRNA, a surrogate for virus) in sterile saline. Two hours later an optimal time for STAT activation, spleens of the mice are homogenized and cytosolic and nuclear cell extracts are prepared. STAT protein levels are measured in the cytosolic and nuclear fractions by Western blot analysis. STAT phosphorylation (i.e. activation) is measured following immunoprecipitation using anti-phosphotyrosine antibodies.
# DBA/2 mice received daily ip injections of SW hydrochloride (20 μg/day) for 10 days. On day 11 the mice were injected with Poly IC (100 μg/mouse) or an equivalent volume of PBS 2 h before being sacrificed. Spleen and liver tissues were collected and immediately frozen in liquid nitrogen. Nuclear extracts were prepared and analyzed (8 μg) by immunoblotting with the indicated antibodies. […] Cytosol extracts were prepared and analyzed (20 μg) by immunoblotting with the indicated antibodies. Spleen nuclear extracts were prepared and analyzed (8 μg) by immunoblotting with anti-phosphotyrosine antibodies.
# [3] = Preformulation pH stability study in buffered solutions; type: physicochemical; conditions: pH 4 and 7, ambient and stressed (40° C. and 50° C.) storage
# Protocol: Preformulation studies of swainsonine hydrochloride, bulk drug substance, and in combination with powder and semisolid fill gelatin capsules were conducted with respect to the following: hygroscopicity, pH, stability, and solubility. […] At 20% and 50% RH it absorbed 1.9% and 2.1% of water by Karl Fischer after 48 hours of storage. The moisture uptake diminishes when anhydrous powder excipients (e.g. lactose anhydrous and mannitol powder) are used to formulate the pharmaceutical active into a hard capsule.
# [4] = system: early erythroid progenitor cells (CFU-E); experiment: Murine bone marrow progenitor cell assay in methylcellulose, CFU-E; type: cell-based, C57BL/6 mice
# Protocol: Pathogen-free C57BL/6 female mice, 8-9 weeks old, obtained from Jackson Laboratories were used. The room environment and photoperiod were controlled: 24° C.; humidity, 50±20%; 12 hr light and 12 hr dark. Mice were housed one per cage with ad libitum accesses to standard pelleted commercial laboratory diet and to sterile (autoclaved) tap water.
# Swainsonine hydrochloride was manufactured by Seres Laboratories, Calif. FBS and methylcellulose (MethoCult M3330) were purchased from Stem Cell Technologies, Inc. (Vancouver. BC). Iscove's modified Dulbecco's medium was prepared using powdered media from Gibco BRL, deionized water and filter sterilization. For the handling of cells, the media was supplemented with 2% FBS and 50 μM β-mercaptoethanol (referred to as IMDM/FBS).
# The healthy and GD0039 treated mice were euthanized by CO2 asphyxiation. Bone marrow (BM) cell suspensions were prepared under sterile conditions by flushing both femurs and tibiae with IMDM/FBS using a 26 gauge needle. Single cell suspensions were made up to 10.0 ml IMDM/FBS. The concentration of nucleated cells in each suspension was determined by triplicate counts on a hemocytometer. A portion of the cells was further diluted in media to the appropriate concentration before plating for the progenitor assay.
# Colony-forming units (CFUs) were estimated by the methylcellulose method. One milliliter suspensions, containing 2×10^5 nucleated BM cells, in 0.1 ml of IMDM and 0.9 ml MethoCult (M3330), were plated in triplicate in 35 mm tissue culture dishes. […] The MethoCult M3330 contains 30% FBS and 10 μg/ml erythropoietin and is designed for the growth of early erythroid progenitor cells (CFU-E), which were scored after 3 days of incubation at 37° C. in a humidified atmosphere containing 5% CO2. […] Colonies containing more than 20 cells were scored using an inverted microscope with brightfield optics and 40× or 100× magnification.
# [5] = Accelerated stability of stressed solid samples, percentage remaining by HPLC; type: physicochemical
# Excerpt: Samples of swainsonine free base synthesized using synthetic routes developed by Dr. David Dime (Toronto Research Chemicals, Toronto, Ontario) and Dr. William Pearson (University of Michigan, Ann Arbor, Mich.), were recrystallized to obtain either the hydrochloride salt, the hydrobromide salt or the free base of swainsonine. Samples were weighed and exposed to the conditions described below.
# To model long-term stability or shelf life, various conditions were used to accelerate the decomposition process. Samples of crystalline prism swainsonine hydrochloride salt and swainsonine free base (a white, fluffy powder obtained from swainsonine hydrochloride were recrystallized from chloroform-methanol-diethyl ether) were weighed and exposed to conditions described below (stressed samples). Unstressed samples were prepared at 1 mg/ml concentration and chromatographed in sextuplicate on each run. After the indicated time interval each stressed sample was diluted with mobile phase at the same concentration as the unstressed sample. The percentage remaining swainsonine hydrochloride or swainsonine free base was calculated based on the percentage of either the hydrochloride or the free base in the unstressed sample.
# The conditions included (a) UV light for 7 days; (b) 105° C. with atmospheric oxygen for seven days (*=average of two samples); (c) 105° C. under nitrogen for seven days (*=average of two samples); (d) 70° C. with low humidity for seven days; and (e) 40° C. with 75% relative humidity for seven days. Other tests include (f) UV for 24 hours; (g) 100° C. aqueous solution for two hours; (h) aqueous acidic treatment for 24 hours; (i) aqueous alkali treatment for 4 hours; and (j) (aqueous) 3% hydrogen peroxide for 4 hours. […] The physical properties of swainsonine hydrochloride compared to the free base and swainsonine hydrobromide, and swainsonine hydrofluoride are shown in Table 5.
smiles,measurement,setting,value
"Cl.O[C@H]1[C@H]2[C@H](O)CCCN2C[C@@H]1O [swainsonine hydrochloride, (−)-(1S,2S,8R,8aR)-1,2,8-trihydroxyoctahydro-indolizidine hydrochloride salt]",difference in mean tumour volume between control and treatment groups,[1]; day 29 as printed,27%
same,difference in mean tumour volume between control and treatment groups,[1]; day 32,35%
same,difference in mean tumour volume between control and treatment groups,[1]; day 42,32%
same,mean tumour weight,"[1]; 0.5 mg/kg/day via osmotic pump, 42 day sacrifice, control 7.35 g",4.87 g
same,"incidence of lung metastasis, average","[1]; 0.5 mg/kg/day via osmotic pump, day 42 sacrifice, control 1.8",0.25 nodules/mouse
same,solubility in distilled water at room temperature,[2]; Table 5,3000 mg/mL
same,solubility in distilled water at room temperature,"[2]; distilled water, room temperature",about 3 g/ml
same,activation of STAT1 in spleen,"STAT1; 20 μg/day ip for 10 days, then Poly IC 100 μg/mouse, FIG. 10A",increases the activation
same,STAT1 cytosolic protein levels,"STAT1; 20 μg/day ip, spleen",enhanced
same,stability in buffered solutions,[3],stable
same,increase in the number of early CFU-E,[4]; 0.03 μg/ml to 10 μg/ml in vitro,~3 fold
same,"number of early CFU-E, counted on day 3",[4]; added to methylcellulose in vitro,significantly increased
same,mean CFU-E of triplicate counts ± SD from 2 × 10^5 nucleated BM cells,"[4]; mouse 1 (control), 0.3 μg/ml in vitro, in vitro control 54 ± 12",75 ± 16
same,mean CFU-E of triplicate counts ± SD from 2 × 10^5 nucleated BM cells,"[4]; mouse 1 (control), 3 μg/ml in vitro, in vitro control 54 ± 12",87 ± 16
same,mean CFU-E of triplicate counts ± SD from 2 × 10^5 nucleated BM cells,"[4]; mouse 2 (GD0039 treated in vivo, 20 μg/day for four days), 0.3 μg/ml in vitro",97 ± 4
same,mean CFU-E of triplicate counts ± SD from 2 × 10^5 nucleated BM cells,"[4]; mouse 2 (GD0039 treated in vivo, 20 μg/day for four days), 3 μg/ml in vitro",127 ± 18
same,mean CFU-E of triplicate counts ± SD from 2 × 10^5 nucleated BM cells,"[4]; mouse 2 (GD0039 treated in vivo, 20 μg/day for four days), no treatment in vitro",22 ± 5
same,"percentage remaining, condition (e)",[5]; 40° C. with 75% relative humidity for seven days,101.9%
same,"percentage remaining, condition (d)",[5]; 70° C. with low humidity for seven days,103.2%
same,"percentage remaining, condition (c)",[5]; 105° C. under nitrogen for seven days (*=average of two samples),101.2%
same,"percentage remaining, condition (b)",[5]; 105° C. with atmospheric oxygen for seven days (*=average of two samples),100.9%
same,"percentage remaining, condition (a)",[5]; UV light for 7 days,99.4%
